Experimental data: ChEMBL document CHEMBL1821711, “Design and synthesis of novel arylpiperazine derivatives containing the imidazole core targeting 5-HT(2A) receptor and 5-HT transporter” (J Med Chem, 2011)

What was measured:
[1] = target: T1, 5-hydroxytryptamine receptor 1A (Homo sapiens, UniProt P08908)
T1 sequence (P08908 whole entry): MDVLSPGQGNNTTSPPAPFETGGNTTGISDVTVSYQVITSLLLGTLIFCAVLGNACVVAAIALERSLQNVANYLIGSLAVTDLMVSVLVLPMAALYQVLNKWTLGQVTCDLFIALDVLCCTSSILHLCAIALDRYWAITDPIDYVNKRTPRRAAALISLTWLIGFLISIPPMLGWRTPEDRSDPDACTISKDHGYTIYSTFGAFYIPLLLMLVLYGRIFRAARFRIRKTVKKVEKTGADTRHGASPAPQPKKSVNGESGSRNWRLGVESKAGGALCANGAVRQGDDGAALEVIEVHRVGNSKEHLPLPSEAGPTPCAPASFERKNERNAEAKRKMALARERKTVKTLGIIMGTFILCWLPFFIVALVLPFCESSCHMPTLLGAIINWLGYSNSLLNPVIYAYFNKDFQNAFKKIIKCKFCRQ
Description: Inhibition of 5HT1A receptor by competition binding assay

[2] = target: 5-hydroxytryptamine receptor 6 (Homo sapiens, UniProt P50406)
Description: Inhibition of 5HT6 receptor by competition binding assay

[3] = target: 5-hydroxytryptamine receptor 7 (Homo sapiens, UniProt P34969)
Description: Inhibition of 5HT7 receptor by competition binding assay

[4] = target: D(2) dopamine receptor (Homo sapiens, UniProt P14416)
Description: Inhibition of dopamine D2 receptor by competition binding assay

[5] = target: D(3) dopamine receptor (Homo sapiens, UniProt P35462)
Description: Inhibition of dopamine D3 receptor by competition binding assay

[6] = target: T2, D(4) dopamine receptor (Homo sapiens, UniProt P21917)
T2 sequence (P21917 whole entry): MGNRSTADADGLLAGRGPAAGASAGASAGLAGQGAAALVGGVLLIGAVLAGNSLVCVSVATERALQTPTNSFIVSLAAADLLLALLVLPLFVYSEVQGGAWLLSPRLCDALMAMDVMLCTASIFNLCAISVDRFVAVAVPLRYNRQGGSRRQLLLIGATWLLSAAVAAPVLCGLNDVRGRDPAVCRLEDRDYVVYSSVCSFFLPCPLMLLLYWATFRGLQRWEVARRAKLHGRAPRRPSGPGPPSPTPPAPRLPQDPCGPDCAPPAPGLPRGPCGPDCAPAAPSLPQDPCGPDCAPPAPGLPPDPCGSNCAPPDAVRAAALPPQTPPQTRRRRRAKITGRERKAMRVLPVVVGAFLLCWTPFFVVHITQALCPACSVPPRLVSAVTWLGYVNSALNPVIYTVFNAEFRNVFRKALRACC
Description: inhibition of dopamine D4 receptor by competition binding assay

[7] = target: T3, 5-hydroxytryptamine receptor 2C (Homo sapiens, UniProt P28335); test: biochemical; type: cell-based, CHO-K1
T3 sequence (P28335 whole entry): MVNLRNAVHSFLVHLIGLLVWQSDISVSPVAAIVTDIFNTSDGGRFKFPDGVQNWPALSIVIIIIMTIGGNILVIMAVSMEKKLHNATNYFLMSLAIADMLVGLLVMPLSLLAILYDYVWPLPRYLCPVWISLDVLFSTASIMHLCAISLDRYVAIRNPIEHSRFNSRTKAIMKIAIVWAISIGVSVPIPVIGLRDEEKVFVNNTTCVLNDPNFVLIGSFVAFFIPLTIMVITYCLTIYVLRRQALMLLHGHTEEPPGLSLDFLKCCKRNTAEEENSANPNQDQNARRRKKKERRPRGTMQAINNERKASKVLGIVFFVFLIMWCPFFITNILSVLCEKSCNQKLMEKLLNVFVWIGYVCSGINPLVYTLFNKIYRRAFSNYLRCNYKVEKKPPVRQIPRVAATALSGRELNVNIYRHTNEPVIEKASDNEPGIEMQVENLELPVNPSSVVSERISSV
Description: Displacement of [3H]mesulergine from human recombinant 5-HT2C receptor expressed in CHO-K1 cells

[8] = target: T4, Cytochrome P450 1A2 (Homo sapiens, UniProt P05177)
T4 sequence (P05177 whole entry): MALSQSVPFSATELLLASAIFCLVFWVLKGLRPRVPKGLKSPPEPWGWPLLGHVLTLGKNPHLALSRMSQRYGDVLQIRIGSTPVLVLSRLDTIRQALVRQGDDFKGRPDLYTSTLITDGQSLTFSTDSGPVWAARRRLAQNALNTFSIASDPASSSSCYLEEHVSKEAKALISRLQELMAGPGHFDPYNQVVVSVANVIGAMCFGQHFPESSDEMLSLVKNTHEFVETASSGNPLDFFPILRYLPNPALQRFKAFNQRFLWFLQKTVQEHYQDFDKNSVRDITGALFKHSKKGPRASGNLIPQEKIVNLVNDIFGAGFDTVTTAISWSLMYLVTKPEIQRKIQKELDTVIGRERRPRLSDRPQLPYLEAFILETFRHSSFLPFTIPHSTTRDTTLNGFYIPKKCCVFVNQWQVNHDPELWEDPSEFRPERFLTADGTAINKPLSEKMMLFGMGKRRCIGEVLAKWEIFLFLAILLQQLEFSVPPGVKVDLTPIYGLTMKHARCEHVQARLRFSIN
Description: Inhibition of human recombinant CYP1A2 by luceferin-based assay

[9] = target: Cytochrome P450 2C9 (Homo sapiens, UniProt P11712)
Description: Inhibition of human recombinant CYP2C9 by luceferin-based assay

[10] = target: Cytochrome P450 2D6 (Homo sapiens, UniProt P10635)
Description: Inhibition of human recombinant CYP2D6 by luceferin-based assay

[11] = target: Cytochrome P450 3A4 (Homo sapiens, UniProt P08684)
Description: Inhibition of human recombinant CYP3A4 by luceferin-based assay

[12] = in vitro; settings: mouse, ht-22
Description: Cytotoxicity against mouse HT22 cells after 48 hrs by MTT assay

Sequence of Cytochrome P450 2D6 (P10635 whole entry): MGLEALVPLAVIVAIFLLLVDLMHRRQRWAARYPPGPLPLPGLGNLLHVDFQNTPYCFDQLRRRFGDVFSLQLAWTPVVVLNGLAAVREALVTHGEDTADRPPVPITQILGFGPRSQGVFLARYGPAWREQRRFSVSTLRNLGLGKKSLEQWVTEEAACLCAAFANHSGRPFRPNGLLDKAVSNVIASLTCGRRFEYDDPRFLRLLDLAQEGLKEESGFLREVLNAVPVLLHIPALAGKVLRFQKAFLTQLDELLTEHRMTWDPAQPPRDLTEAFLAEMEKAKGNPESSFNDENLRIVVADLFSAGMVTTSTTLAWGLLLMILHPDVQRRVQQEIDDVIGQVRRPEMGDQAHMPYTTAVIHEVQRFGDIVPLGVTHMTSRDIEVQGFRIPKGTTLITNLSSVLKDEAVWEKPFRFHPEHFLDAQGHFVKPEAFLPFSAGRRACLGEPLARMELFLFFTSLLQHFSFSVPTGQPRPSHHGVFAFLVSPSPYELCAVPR
Sequence of Cytochrome P450 3A4 (P08684 whole entry): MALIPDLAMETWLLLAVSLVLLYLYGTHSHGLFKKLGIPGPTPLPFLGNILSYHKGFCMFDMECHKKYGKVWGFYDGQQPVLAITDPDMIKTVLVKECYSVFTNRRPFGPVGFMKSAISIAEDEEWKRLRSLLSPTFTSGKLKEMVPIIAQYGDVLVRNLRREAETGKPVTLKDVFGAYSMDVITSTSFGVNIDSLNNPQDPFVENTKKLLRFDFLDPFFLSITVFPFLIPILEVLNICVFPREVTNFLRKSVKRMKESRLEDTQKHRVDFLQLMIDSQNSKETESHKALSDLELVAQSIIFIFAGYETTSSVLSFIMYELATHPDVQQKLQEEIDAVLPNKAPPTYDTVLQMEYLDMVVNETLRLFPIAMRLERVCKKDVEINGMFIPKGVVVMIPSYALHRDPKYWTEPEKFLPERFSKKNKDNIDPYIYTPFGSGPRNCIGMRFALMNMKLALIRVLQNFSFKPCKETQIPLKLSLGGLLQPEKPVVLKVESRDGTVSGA
Sequence of Cytochrome P450 2C9 (P11712 whole entry): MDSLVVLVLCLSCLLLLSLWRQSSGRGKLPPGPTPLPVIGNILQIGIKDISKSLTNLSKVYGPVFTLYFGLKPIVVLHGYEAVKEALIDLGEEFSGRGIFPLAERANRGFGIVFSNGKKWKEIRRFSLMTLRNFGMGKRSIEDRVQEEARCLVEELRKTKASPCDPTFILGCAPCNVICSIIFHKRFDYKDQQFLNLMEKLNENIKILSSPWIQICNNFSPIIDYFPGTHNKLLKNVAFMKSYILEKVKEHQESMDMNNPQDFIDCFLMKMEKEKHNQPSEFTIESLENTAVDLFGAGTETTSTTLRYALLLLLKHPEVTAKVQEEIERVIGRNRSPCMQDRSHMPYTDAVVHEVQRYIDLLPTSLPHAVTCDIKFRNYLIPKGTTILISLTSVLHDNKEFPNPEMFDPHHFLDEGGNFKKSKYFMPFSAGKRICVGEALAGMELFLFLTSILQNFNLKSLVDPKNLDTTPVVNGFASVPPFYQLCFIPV
Sequence of 5-hydroxytryptamine receptor 6 (P50406 whole entry): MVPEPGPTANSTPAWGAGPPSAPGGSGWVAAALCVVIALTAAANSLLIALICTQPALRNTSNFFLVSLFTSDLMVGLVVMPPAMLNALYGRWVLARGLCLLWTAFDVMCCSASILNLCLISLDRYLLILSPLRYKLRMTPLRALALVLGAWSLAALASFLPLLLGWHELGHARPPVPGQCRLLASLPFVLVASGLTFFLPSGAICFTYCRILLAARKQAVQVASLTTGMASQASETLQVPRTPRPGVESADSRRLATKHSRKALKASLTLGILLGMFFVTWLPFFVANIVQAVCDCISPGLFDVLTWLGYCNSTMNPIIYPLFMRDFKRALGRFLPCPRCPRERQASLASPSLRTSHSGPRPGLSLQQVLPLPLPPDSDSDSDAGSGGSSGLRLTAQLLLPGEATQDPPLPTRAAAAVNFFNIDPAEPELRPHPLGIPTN
Sequence of D(3) dopamine receptor (P35462 whole entry): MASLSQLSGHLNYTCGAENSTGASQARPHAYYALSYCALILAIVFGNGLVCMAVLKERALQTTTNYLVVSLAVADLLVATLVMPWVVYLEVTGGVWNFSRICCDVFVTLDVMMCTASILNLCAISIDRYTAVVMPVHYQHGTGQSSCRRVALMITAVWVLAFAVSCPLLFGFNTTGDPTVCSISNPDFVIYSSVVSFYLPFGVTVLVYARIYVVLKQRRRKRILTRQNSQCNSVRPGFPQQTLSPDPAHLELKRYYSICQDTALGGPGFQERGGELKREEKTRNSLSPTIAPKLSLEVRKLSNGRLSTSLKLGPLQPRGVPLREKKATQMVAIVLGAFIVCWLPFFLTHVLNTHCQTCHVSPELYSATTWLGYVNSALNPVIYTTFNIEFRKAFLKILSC
Sequence of D(2) dopamine receptor (P14416 whole entry): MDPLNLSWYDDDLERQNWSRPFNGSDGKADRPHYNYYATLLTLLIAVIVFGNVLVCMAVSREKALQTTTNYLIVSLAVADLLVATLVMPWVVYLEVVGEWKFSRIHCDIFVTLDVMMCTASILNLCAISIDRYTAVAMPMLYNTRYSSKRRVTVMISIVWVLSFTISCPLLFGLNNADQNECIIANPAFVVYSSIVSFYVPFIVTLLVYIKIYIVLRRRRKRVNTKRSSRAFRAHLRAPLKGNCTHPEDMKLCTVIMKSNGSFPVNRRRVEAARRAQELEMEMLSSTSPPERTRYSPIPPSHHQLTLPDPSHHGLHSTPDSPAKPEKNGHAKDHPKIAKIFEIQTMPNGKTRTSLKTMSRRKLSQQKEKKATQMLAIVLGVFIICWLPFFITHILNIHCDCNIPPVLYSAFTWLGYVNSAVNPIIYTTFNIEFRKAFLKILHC
Sequence of 5-hydroxytryptamine receptor 7 (P34969 whole entry): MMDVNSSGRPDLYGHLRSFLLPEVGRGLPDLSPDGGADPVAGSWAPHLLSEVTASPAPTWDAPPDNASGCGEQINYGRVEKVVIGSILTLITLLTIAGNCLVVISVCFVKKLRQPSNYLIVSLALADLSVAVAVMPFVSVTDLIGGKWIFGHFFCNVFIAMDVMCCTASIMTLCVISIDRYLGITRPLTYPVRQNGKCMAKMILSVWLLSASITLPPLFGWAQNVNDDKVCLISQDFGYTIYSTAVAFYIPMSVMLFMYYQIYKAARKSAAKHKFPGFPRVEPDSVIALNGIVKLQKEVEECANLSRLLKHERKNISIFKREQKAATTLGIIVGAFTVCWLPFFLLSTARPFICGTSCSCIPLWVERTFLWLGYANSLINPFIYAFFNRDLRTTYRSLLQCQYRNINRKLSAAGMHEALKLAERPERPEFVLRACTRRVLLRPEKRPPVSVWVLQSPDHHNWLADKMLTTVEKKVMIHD

| SMILES | IC50 [7] [nM] | also measured |
| --- | --- | --- |
| Cc1nc(C(=O)NCCCN2CCN(c3cccc(Cl)c3Cl)CC2)c(C)n1-c1ccccc1 |  | IC50 [1]: 4.9 nM; IC50 [2]: 136 nM; IC50 [3]: 11 nM; IC50 [4]: 1370 nM; IC50 [5]: 493 nM; IC50 [6]: > 10000 nM |
| Cc1c(Cl)cccc1N1CCN(CCCNC(=O)c2nc(C)n(CC(C)C)c2C)CC1 | 2220 |  |
| CCCc1nc(C(=O)NCCCN2CCN(c3cccc(Cl)c3Cl)CC2)c(C)n1-c1ccccc1F | 189 |  |
| CCCc1nc(C(=O)NCCCN2CCN(c3cccc(C)c3C)CC2)cn1-c1ccc(F)cc1 | 238 |  |
| Cc1cccc(N2CCN(CCCNC(=O)c3nc(-c4ccccc4)n(-c4ccc5c(c4)OCCO5)c3C)CC2)c1C | 68 |  |
| Cc1cccc(N2CCN(CCCNC(=O)c3nc(-c4ccccc4)n(-c4ccccc4)c3C)CC2)c1C | 193 |  |
| Cc1c(Cl)cccc1N1CCN(CCCNC(=O)c2nc(-c3ccccc3)n(-c3ccccc3)c2Cn2cncn2)CC1 | 1370 | IC50 [8]: 15300 nM; IC50 [9]: 3300 nM; IC50 [10]: 4800 nM; IC50 [11]: > 20000 nM; CC50 at 48 h [12]: 19100 nM |
| CCCc1nc(C(=O)NCC(O)CN2CCN(c3cccc(Cl)c3Cl)CC2)c(C)n1-c1ccc(F)cc1 (stereo not drawn) | 1510 |  |
| COc1ccc(-n2cc(C(=O)NCCCN3CCN(c4cccc(C)c4C)CC3)nc2-c2ccccc2)cc1 | 104 |  |
| CCCc1nc(C(=O)NCCCN2CCN(c3cccc(Cl)c3C)CC2)c(C)n1-c1ccccc1 | 604 |  |
| CCCc1nc(C(=O)NCCCN2CCN(c3cccc(Cl)c3C)CC2)cn1-c1ccc(Cl)cc1 | 367 |  |
| COc1ccc(-n2c(C)nc(C(=O)NCC(O)CN3CCN(c4cccc(C)c4C)CC3)c2C)cc1 (stereo not drawn) | 546 |  |
| CCCc1nc(C(=O)NCCCN2CCN(c3cccc(C)c3C)CC2)c(C)n1-c1ccccc1 | 286 |  |
| COc1ccc(-n2c(C)nc(C(=O)NCCCN3CCN(c4cccc(C)c4C)CC3)c2C)cc1 | 191 |  |
| CCCc1nc(C(=O)NCCCN2CCN(c3cccc(C)c3C)CC2)c(C)n1-c1ccccc1OC | 283 |  |
| Cc1cccc(N2CCN(CCCNC(=O)c3cn(-c4ccccc4)c(-c4ccccc4)n3)CC2)c1C | 116 |  |
| CCCc1nc(C(=O)NCCCN2CCN(c3cccc(Cl)c3Cl)CC2)c(C)n1-c1ccccc1OC | 383 |  |
| Cc1c(Cl)cccc1N1CCN(CC(O)CNC(=O)c2nc(C)n(C3CCCC3)c2C)CC1 (stereo not drawn) | 166 |  |
| Cc1cccc(N2CCN(CCCNC(=O)c3nc(-c4ccccc4)n(-c4ccc(F)cc4)c3C)CC2)c1C | 64.1 |  |
| CCCc1nc(C(=O)NCC(O)CN2CCN(c3cccc(C)c3C)CC2)c(C)n1-c1ccc2c(c1)OCCO2 (stereo not drawn) | 593 |  |
| COc1ccc(-n2c(-c3ccccc3)nc(C(=O)NCCCN3CCN(c4cccc(Cl)c4C)CC3)c2C)cc1 | 77 |  |
| COc1ccc(-n2c(-c3ccccc3)nc(C(=O)NCC(O)CN3CCN(c4cccc(Cl)c4C)CC3)c2C)cc1 (stereo not drawn) | 526 |  |
| Cc1nc(C(=O)NCCCN2CCN(c3cccc(Cl)c3Cl)CC2)c(C)n1-c1ccccc1C(F)(F)F | 155 |  |
| Cc1cccc(N2CCN(CCCNC(=O)c3nc(C)n(-c4ccc(Cl)cc4)c3C)CC2)c1C | 233 |  |
| COc1ccc(-n2c(-c3ccccc3)nc(C(=O)NCC(O)CN3CCN(c4cccc(C)c4C)CC3)c2C)cc1 (stereo not drawn) | 609 |  |
| CCCn1c(C)nc(C(=O)NCC(O)CN2CCN(c3cccc(C)c3C)CC2)c1C (stereo not drawn) | > 10000 |  |
| Cc1cccc(N2CCN(CC(O)CNC(=O)c3nc(C)n(-c4ccc5c(c4)OCCO5)c3C)CC2)c1C (stereo not drawn) | 610 |  |

| SMILES | IC50 [7] [nM] | also measured |
| --- | --- | --- |
| CCCc1nc(C(=O)NCCCN2CCN(c3cccc(Cl)c3Cl)CC2)c(C)n1-c1ccc2c(c1)OCCO2 | 297 |  |
| Cc1c(Cl)cccc1N1CCN(CC(O)CNC(=O)c2nc(C)n(-c3cccc(Cl)c3)c2C)CC1 (stereo not drawn) | 556 |  |
| Cc1c(Cl)cccc1N1CCN(CCCNC(=O)c2nc(C)n(-c3ccc(F)cc3)c2C)CC1 | 113 |  |
| Cc1c(Cl)cccc1N1CCN(CC(O)CNC(=O)c2nc(C)n(-c3ccc4c(c3)OCCO4)c2C)CC1 (stereo not drawn) | 663 |  |
| CCCc1nc(C(=O)NCCCN2CCN(c3cccc(Cl)c3C)CC2)c(C)n1-c1ccccc1OC | 473 |  |
| COc1ccc(-n2c(C)nc(C(=O)NCC(O)CN3CCN(c4cccc(Cl)c4C)CC3)c2C)cc1 (stereo not drawn) | 323 |  |
| Cc1cccc(N2CCN(CC(O)CNC(=O)c3nc(-c4ccccc4)n(-c4ccc(F)cc4)c3C)CC2)c1C (stereo not drawn) | 185 |  |
| Cc1c(Cl)cccc1N1CCN(CCCNC(=O)c2nc(C)n(-c3ccc4c(c3)OCCO4)c2C)CC1 | 106 |  |
| Cc1nc(C(=O)NCCCN2CCN(c3cccc(Cl)c3Cl)CC2)c(C)n1C1CCCC1 | 139 |  |
| COc1ccc(-n2c(-c3ccccc3)nc(C(=O)NCCCN3CCN(c4cccc(Cl)c4Cl)CC3)c2C)cc1 | 64 |  |
| CCCc1nc(C(=O)NCC(O)CN2CCN(c3cccc(C)c3C)CC2)c(C)n1-c1ccc(F)cc1 (stereo not drawn) | 1000 |  |
| Cc1c(Cl)cccc1N1CCN(CCCNC(=O)c2nc(-c3ccccc3)n(-c3ccc(F)cc3)c2C)CC1 | 2240 |  |
| CCCn1c(C)nc(C(=O)NCCCN2CCN(c3cccc(Cl)c3Cl)CC2)c1C | 198 |  |
| Cc1c(Cl)cccc1N1CCN(CCCNC(=O)c2nc(C)n(C3CCCC3)c2C)CC1 | 4370 |  |
| CCCc1nc(C(=O)NCCCN2CCN(c3cccc(Cl)c3C)CC2)c(C)n1-c1ccc(F)cc1 | 229 |  |
| CCCc1nc(C(=O)NCCCN2CCN(c3cccc(C)c3C)CC2)c(C)n1-c1ccc(F)cc1 | 68 |  |
| Cc1nc(C(=O)NCC(O)CN2CCN(c3cccc(Cl)c3Cl)CC2)c(C)n1-c1ccccc1F (stereo not drawn) | 459 |  |
| Cc1c(Cl)cccc1N1CCN(CCCNC(=O)c2nc(-c3ccccc3)n(-c3ccccc3)c2C)CC1 | 1510 | IC50 [8]: > 20000 nM; IC50 [9]: 2900 nM; IC50 [10]: 5400 nM; IC50 [11]: > 20000 nM; CC50 at 48 h [12]: 23600 nM |
| CCCc1nc(C(=O)NCCCN2CCN(c3cccc(C)c3C)CC2)c(C)n1-c1ccccc1Cl | 235 |  |
| CCCc1nc(C(=O)NCCCN2CCN(c3cccc(Cl)c3C)CC2)c(C)n1-c1ccc2c(c1)OCCO2 | 61 |  |
| CCCc1nc(C(=O)NCC(O)CN2CCN(c3cccc(C)c3C)CC2)c(C)n1-c1ccc(Cl)cc1 (stereo not drawn) | 661 |  |
| Cc1c(C(=O)NCC(O)CN2CCN(c3cccc(Cl)c3Cl)CC2)nc(-c2ccccc2)n1-c1ccc(F)cc1 (stereo not drawn) | 64 |  |
| COc1ccc(-n2c(-c3ccccc3)nc(C(=O)NCCCN3CCN(c4cccc(C)c4C)CC3)c2C)cc1 | 96 |  |
| CCCc1nc(C(=O)NCCCN2CCN(c3cccc(Cl)c3C)CC2)c(C)n1-c1ccc(OC)cc1 | 204 |  |
| Cc1c(Cl)cccc1N1CCN(CC(O)CNC(=O)c2nc(-c3ccccc3)n(-c3ccccc3)c2C)CC1 (stereo not drawn) | 739 |  |
| Cc1c(C(=O)NCCCN2CCN(c3cccc(Cl)c3Cl)CC2)nc(-c2ccccc2)n1-c1ccccc1F | 185 |  |
